# Source: PubChem BioAssay (NCI)
#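 1) Cells in 96-well plates. 2) Compound, 48 h, 5 concentrations. 3) Linear interpolation between surrounding doses. 4) Unreached endpoint = highest concentration. TGI: total growth inhibition.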
# How the values were obtained:
# Experiment in all cases: growth of human tumour cells (NCI), 48 h
# PC-3 prostate = system: PC-3 prostate
# NCI-H522 lung = system: NCI-H522 lung
# EKVX NSCLC = system: EKVX NSCLC
# HL-60(TB) leukemia = system: HL-60(TB) leukemia
# SK-OV-3 ovarian = system: SK-OV-3 ovarian
# M14 melanoma = system: M14 melanoma
# HS 578T breast = system: HS 578T breast
# UACC-257 melanoma = system: UACC-257 melanoma
# MOLT-4 leukemia = system: MOLT-4 leukemia
# MDA-MB-435 = system: MDA-MB-435
# MCF7 breast = system: MCF7 breast
# KM12 colon = system: KM12 colon
# SF-539 CNS = system: SF-539 CNS
# K-562 leukemia = system: K-562 leukemia
# IGROV1 ovarian = system: IGROV1 ovarian
# U251 CNS = system: U251 CNS
# LOX IMVI melanoma = system: LOX IMVI melanoma
# HT29 colon = system: HT29 colon
# OVCAR-8 ovarian = system: OVCAR-8 ovarian
SMILES,TGI (PC-3 prostate),TGI (NCI-H522 lung),TGI (EKVX NSCLC),TGI (HL-60(TB) leukemia),TGI (SK-OV-3 ovarian),TGI (M14 melanoma),TGI (HS 578T breast),TGI (UACC-257 melanoma),TGI (MOLT-4 leukemia),TGI (MDA-MB-435),TGI (MCF7 breast),TGI (KM12 colon),TGI (SF-539 CNS),TGI (K-562 leukemia),TGI (IGROV1 ovarian),TGI (U251 CNS),TGI (LOX IMVI melanoma),TGI (HT29 colon),TGI (OVCAR-8 ovarian)
CCOc1ccc(Nc2nc3c(s2)C(=O)c2ccccc2C3=O)cc1,20 µM,78.7 µM,50.4 µM,> 100 µM,34.3 µM,27 µM,> 100 µM,27.4 µM,> 100 µM,3.25 µM,38.4 µM,27.9 µM,35.7 µM,> 100 µM,26.7 µM,20.7 µM,15.8 µM,–,–
COc1ccc(NC(=O)CC(=O)N2N=C(c3ccccc3)C(N=Nc3ccc(S(=O)(=O)CCOS(=O)(=O)O)cc3)C2=O)cc1 (centres undefined),> 100 µM,> 100 µM,> 100 µM,> 100 µM,> 100 µM,> 100 µM,> 100 µM,> 100 µM,> 100 µM,> 100 µM,> 100 µM,> 100 µM,> 100 µM,> 100 µM,> 100 µM,> 100 µM,> 100 µM,> 100 µM,> 100 µM
CC(C)c1nc2cc(C(F)(F)F)ccc2[nH]c1=O,> 100 µM,> 100 µM,> 100 µM,> 100 µM,> 100 µM,> 100 µM,54.5 µM,> 100 µM,> 100 µM,> 100 µM,> 100 µM,> 100 µM,> 100 µM,> 100 µM,> 100 µM,> 100 µM,–,> 100 µM,> 100 µM
COCO[C@@H]1C[C@H]2C(=O)N(COC)c3ccccc3C(=O)N2C1,> 100 µM,> 100 µM,> 100 µM,> 100 µM,> 100 µM,> 100 µM,> 100 µM,> 100 µM,> 100 µM,> 100 µM,> 100 µM,> 100 µM,> 100 µM,–,> 100 µM,> 100 µM,> 100 µM,> 100 µM,> 100 µM
Cc1ccc(O)c(C(c2ccc([N+](=O)[O-])cc2)c2cc(C)ccc2O)c1,14.3 µM,28.6 µM,34.3 µM,7.61 µM,30 µM,26.7 µM,24 µM,28.4 µM,26.3 µM,28.5 µM,20.3 µM,20.7 µM,32.1 µM,> 100 µM,25.2 µM,48.8 µM,55.6 µM,30 µM,30.7 µM
Cc1cc(NS(=O)(=O)c2ccc(NC(=O)c3ccc4[nH]c5ccccc5c(=O)c4c3)cc2)no1,> 100 µM,> 100 µM,> 100 µM,> 100 µM,> 100 µM,> 100 µM,> 100 µM,> 100 µM,> 100 µM,> 100 µM,> 100 µM,> 100 µM,> 100 µM,> 100 µM,> 100 µM,> 100 µM,> 100 µM,> 100 µM,> 100 µM
N#Cc1n[nH]n(C2CCCCC2)c1=O,> 100 µM,> 100 µM,> 100 µM,> 100 µM,> 100 µM,> 100 µM,> 100 µM,> 100 µM,> 100 µM,> 100 µM,> 100 µM,> 100 µM,> 100 µM,–,> 100 µM,> 100 µM,> 100 µM,> 100 µM,> 100 µM
Cc1ccc(Cc2n[nH]c(=O)n2/N=C\CC/C=N\n2c(Cc3ccc(C)cc3)n[nH]c2=O)cc1,> 100 µM,> 100 µM,> 100 µM,> 100 µM,> 100 µM,> 100 µM,45.5 µM,> 100 µM,> 100 µM,> 100 µM,> 100 µM,> 100 µM,24.9 µM,> 100 µM,> 100 µM,53.7 µM,> 100 µM,> 100 µM,39.9 µM
O=C(N/N=C(/COc1ccc(Cl)cc1)N=Cc1cccnc1)c1ccncc1,> 100 µM,66.7 µM,> 100 µM,> 100 µM,> 100 µM,> 100 µM,94.9 µM,> 100 µM,> 100 µM,> 100 µM,> 100 µM,> 100 µM,> 100 µM,> 100 µM,> 100 µM,> 100 µM,> 100 µM,> 100 µM,> 100 µM
O=S(=O)(N/N=C1\CC2CCC1C2)c1ccccc1 (centres undefined),> 100 µM,> 100 µM,> 100 µM,> 100 µM,> 100 µM,> 100 µM,> 100 µM,> 100 µM,> 100 µM,> 100 µM,> 100 µM,> 100 µM,–,> 100 µM,> 100 µM,> 100 µM,> 100 µM,> 100 µM,> 100 µM
COc1cc(-c2cc(=O)c3c(OC)c(OC)c(OC)cc3o2)c(OC)c(OC)c1OC,> 75 µM,> 75 µM,> 75 µM,44 µM,> 75 µM,> 75 µM,> 75 µM,> 75 µM,> 75 µM,> 75 µM,> 75 µM,> 75 µM,> 75 µM,> 75 µM,> 75 µM,> 75 µM,> 75 µM,> 75 µM,> 75 µM
O=C1NC(=O)C(CC(C(=O)C(=O)Nc2ccccc2Cl)C(=O)c2ccc3ccccc3c2)C(=O)N1 (centres undefined),> 100 µM,> 100 µM,> 100 µM,> 100 µM,> 100 µM,> 100 µM,> 100 µM,> 100 µM,> 100 µM,> 100 µM,> 100 µM,> 100 µM,> 100 µM,–,> 100 µM,> 100 µM,> 100 µM,> 100 µM,> 100 µM
CC1=NOC2(C1)C(=O)Nc1ccccc12 (centres undefined),> 100 µM,> 100 µM,> 100 µM,> 100 µM,> 100 µM,> 100 µM,> 100 µM,> 100 µM,> 100 µM,> 100 µM,> 100 µM,> 100 µM,> 100 µM,> 100 µM,> 100 µM,> 100 µM,> 100 µM,> 100 µM,> 100 µM
N#CC(c1ccnc(Cl)n1)c1nc2ccccc2s1 (centres undefined),26 µM,11.1 µM,> 74.6 µM,5.43 µM,16 µM,20.4 µM,28.4 µM,41.2 µM,> 39.3 µM,> 100 µM,40.6 µM,> 45.9 µM,15.1 µM,76.2 µM,> 53.2 µM,13.3 µM,> 33.9 µM,10.3 µM,> 41.2 µM
S=C1Cc2c(-c3ccc(Cl)cc3)cc(-c3ccccc3)nc2-c2ccccc2N1,44 µM,40.2 µM,54.9 µM,> 100 µM,25.7 µM,49 µM,16.3 µM,36.1 µM,> 100 µM,46 µM,> 100 µM,50.9 µM,16.2 µM,> 100 µM,14 µM,> 100 µM,35.2 µM,21.6 µM,8.04 µM
CC(=O)c1c(SCCN2CCCC2)n(-c2ccccc2)c(=S)n(-c2ccccc2)c1=O,10.8 µM,8.31 µM,37.3 µM,6.93 µM,> 100 µM,6.63 µM,54.2 µM,9.17 µM,> 23.4 µM,13.2 µM,3.01 µM,> 55.7 µM,12.5 µM,> 26.7 µM,19.4 µM,47.9 µM,9.04 µM,20.7 µM,23.5 µM
O=C1N(c2ccccc2)C2(c3ccccc3)CC3CCCC13S2 (centres undefined),90.3 µM,75.7 µM,> 100 µM,61.3 µM,> 100 µM,> 100 µM,> 100 µM,51.1 µM,> 100 µM,> 100 µM,> 100 µM,> 100 µM,> 100 µM,> 100 µM,> 100 µM,> 100 µM,> 100 µM,> 100 µM,> 100 µM
COC(=O)[C@@H]1C=C[C@H](OC2OC(COC(C)=O)C(OC(C)=O)C(OC(C)=O)C2OC(C)=O)n2c(=O)c3ccccc3c(=O)n21 (some centres undefined),25.3 µM,3.28 µM,30.5 µM,30.2 µM,28.2 µM,36.9 µM,76.2 µM,51.2 µM,41.1 µM,23 µM,29.3 µM,27.4 µM,33.7 µM,24.5 µM,33.3 µM,25.1 µM,29.5 µM,60.9 µM,49 µM
Cc1cc2c(cc1Cl)SC(c1ccccc1)C(=O)NS2(=O)=O (centres undefined),70.7 µM,59.7 µM,> 100 µM,58.9 µM,> 100 µM,> 100 µM,59.4 µM,88.5 µM,60.7 µM,> 100 µM,> 100 µM,> 100 µM,73.3 µM,> 100 µM,> 100 µM,60.5 µM,> 100 µM,> 100 µM,> 100 µM
CN(C)c1ccc(/C=C(\NC(=O)c2ccccc2)C(=O)NCC(=O)O)cc1,> 100 µM,> 100 µM,> 100 µM,> 100 µM,> 100 µM,> 100 µM,> 100 µM,> 100 µM,> 100 µM,> 100 µM,> 100 µM,> 100 µM,> 100 µM,> 100 µM,> 100 µM,> 100 µM,> 100 µM,> 100 µM,> 100 µM
COc1cc2c(c(O)c1OC)C(O)C1CCC(=O)N1C2c1cccc2ccccc12 (centres undefined),> 100 µM,> 100 µM,> 100 µM,> 100 µM,> 100 µM,> 100 µM,> 100 µM,> 100 µM,> 100 µM,> 100 µM,> 100 µM,> 100 µM,> 100 µM,> 100 µM,> 100 µM,> 100 µM,–,> 100 µM,> 100 µM
Nc1ccc(-c2cssc2=S)cc1,> 100 µM,> 100 µM,> 100 µM,62.5 µM,> 100 µM,> 100 µM,> 100 µM,> 100 µM,> 100 µM,> 100 µM,> 100 µM,> 100 µM,> 100 µM,> 100 µM,> 100 µM,> 100 µM,> 100 µM,> 100 µM,> 100 µM
O=S(=O)(O)CCCC1S(=O)(=O)OCCOS1(=O)=O,> 100 µM,> 100 µM,> 100 µM,> 100 µM,> 100 µM,> 100 µM,> 100 µM,> 100 µM,–,> 100 µM,> 100 µM,> 100 µM,> 100 µM,–,> 100 µM,> 100 µM,> 100 µM,> 100 µM,> 100 µM
C=C1[C@H](OC(=O)C(C)C)[C@]23CC4(O)[C@@H]5[C@@]6(C)CCC[C@]57C([C@@H]2C[C@@]1(O)[C@H](O)[C@@H]73)N4C6,> 100 µM,> 100 µM,> 100 µM,> 100 µM,> 100 µM,> 100 µM,> 100 µM,> 100 µM,> 100 µM,> 100 µM,> 100 µM,> 100 µM,> 100 µM,–,> 100 µM,> 100 µM,> 100 µM,> 100 µM,> 100 µM
Cn1c(-c2cccs2)cc(-c2ccccc2)c1-c1cccs1,> 100 µM,> 100 µM,> 100 µM,> 100 µM,> 100 µM,> 100 µM,> 100 µM,> 100 µM,> 100 µM,> 100 µM,> 100 µM,> 100 µM,> 100 µM,> 100 µM,> 100 µM,> 100 µM,> 100 µM,> 100 µM,> 100 µM
